This passage reports IC50 results from patent US9540392B2, “Thienopyrimidines” (BAYER PHARMA AKTIENGESELLSCHAFT, priority 2012, dated 2017).

Structures are written as SMILES.

In this assay the target is T1, human full-length MKNK1 (Homo sapiens, UniProt Q9BUB5, T385D).
T1 construct: GST (N); purchased Carna Biosciences 02-145; host or cells: insect cells (baculovirus expression system)
T1 sequence (Q9BUB5 1-424 isoform Q9BUB5-2 T344D): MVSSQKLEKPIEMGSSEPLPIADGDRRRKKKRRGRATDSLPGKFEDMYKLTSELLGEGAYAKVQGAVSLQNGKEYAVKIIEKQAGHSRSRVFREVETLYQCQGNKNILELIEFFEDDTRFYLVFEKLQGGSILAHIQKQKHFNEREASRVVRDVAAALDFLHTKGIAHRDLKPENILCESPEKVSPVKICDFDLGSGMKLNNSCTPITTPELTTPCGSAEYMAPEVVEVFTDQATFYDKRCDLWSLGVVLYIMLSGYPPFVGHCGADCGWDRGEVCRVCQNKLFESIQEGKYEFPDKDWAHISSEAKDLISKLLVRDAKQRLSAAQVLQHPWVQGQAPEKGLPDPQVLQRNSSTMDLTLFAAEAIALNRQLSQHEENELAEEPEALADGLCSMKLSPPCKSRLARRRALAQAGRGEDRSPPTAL
The assay can be described thus: MKNK1 kinase high ATP assay (TR-FRET). The class given is biochemical. As to conditions: 2 mM ATP, after preincubation with MKNK1; read-out: MKNK1 IC50 (MKNK1 high ATP). In outline: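 Compound was preincubated 15 min at 22° C. with MKNK1 in 50 mM HEPES pH 7.5, 5 mM MgCl2, 1.0 mM DTT, then the reaction ran 30 min at 22° C. with 2 mM ATP and 0.06 μM biotinylated peptide (final).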
(In TR-FRET formats the signal depends on donor and acceptor labels being close together.)
On to `COc1cc2[nH]ncc2cc1Nc1ncnc2sc3c(c12)CCC(C(=O)N(C)CCO)C3` (racemic) [Example 172, (RS)—N-(2-Hydroxyethyl)-4-[(6-methoxy-1H-indazol-5-yl)amino]-N-methyl-5,6,7,8-tetrahydro[1]benzothieno[2,3-d]pyrimidine-7-carboxamide], for which the IC50 (in general, the midpoint of a concentration-inhibition curve) was determined as 0.4 nM.
The result for `CCOc1cc2[nH]ncc2cc1Nc1ncnc2sc3c(c12)CCC(C(=O)N(C)CCOC)C3` (racemic) [Example 245, (RS)-4-[(6-Ethoxy-1H-indazol-5-yl)amino]-N-(2-methoxyethyl)-N-methyl-5,6,7,8-tetrahydro[1]benzothieno[2,3-d]pyrimidine-7-carboxamide] reads 0.7 nM; that for `O=C(NCc1ccccn1)C1CCc2c(sc3ncnc(Nc4ccc5[nH]ncc5c4)c23)C1` (racemic) [Example 81, (RS)-4-(1H-indazol-5-ylamino)-N-(pyridin-2-ylmethyl)-5,6,7,8-tetrahydro[1]benzothieno[2,3-d]pyrimidine-7-carboxamide], 2.4 nM; that for `CCOc1cc2[nH]ncc2cc1Nc1ncnc2sc3c(c12)CCC(C(=O)N1CCCC(C#N)C1)C3` (racemic) [Example 241, (RS)-1-({4-[(6-Ethoxy-1H-indazol-5-yl)amino]-5,6,7,8-tetrahydro[1]benzothieno[2,3-d]pyrimidin-7-yl}carbonyl)piperidine-3-carbonitrile], 0.4 nM.
For `COCCN(CCOC)C(=O)C1CCc2c(sc3ncnc(Nc4ccc5[nH]ncc5c4)c23)C1` (racemic) [Example 107, (RS)-4-(1H-indazol-5-ylamino)-N,N-bis(2-methoxyethyl)-5,6,7,8-tetrahydro[1]benzothieno[2,3-d]pyrimidine-7-carboxamide], the concentration for half-maximal inhibition (IC50) was found to be 8.1 nM.
Consider `CCN(C)C(=O)C1CCc2c(sc3ncnc(Nc4cc5cn[nH]c5cc4OC(C)C)c23)C1` (racemic) [Example 217, (RS)—N-Ethyl-N-methyl-4-{[6-(propan-2-yloxy)-1H-indazol-5-yl]amino}-5,6,7,8-tetrahydro[1]benzothieno[2,3-d]pyrimidine-7-carboxamide], for which the IC50 was 1 nM.
On to `Cn1ccnc1CNC(=O)C1CCc2c(sc3ncnc(Nc4ccc5[nH]ncc5c4)c23)C1` (racemic) [Example 165, (RS)-4-(1H-indazol-5-ylamino)-N-[(1-methyl-1H-imidazol-2-yl)methyl]-5,6,7,8-tetrahydro[1]benzothieno[2,3-d]pyrimidine-7-carboxamide], for which the IC50 amounted to 16.8 nM.
As to `CN(CCCCO)C(=O)C1CCc2c(sc3ncnc(Nc4ccc5[nH]ncc5c4)c23)C1` (racemic) [Example 193, (RS)-N-(4-hydroxybutyl)-4-(1H-indazol-5-ylamino)-N-methyl-5,6,7,8-tetrahydro[1]benzothieno[2,3-d]pyrimidine-7-carboxamide], the IC50 worked out at 16.8 nM.
The result for `Cn1cncc1CNC(=O)C1CCc2c(sc3ncnc(Nc4ccc5[nH]ncc5c4)c23)C1` (racemic) [Example 152, (RS)-4-(1H-indazol-5-ylamino)-N-[(1-methyl-1H-imidazol-5-yl)methyl]-5,6,7,8-tetrahydro[1]benzothieno[2,3-d]pyrimidine-7-carboxamide] reads 16.8 nM; that for `CCOc1cc2[nH]ncc2cc1Nc1ncnc2sc3c(c12)CCC(C(=O)N(C)CC(F)F)C3` (racemic) [Example 226, (RS)—N-(2,2-Difluoroethyl)-4-[(6-ethoxy-1H-indazol-5-yl)amino]-N-methyl-5,6,7,8-tetrahydro[1]benzothieno[2,3-d]pyrimidine-7-carboxamide], 0.7 nM.
Take `CCOc1cc2[nH]ncc2cc1Nc1ncnc2sc3c(c12)CCC(C(=O)N(C)CC1CC1)C3` (racemic) [Example 240, (RS)—N-(Cyclopropylmethyl)-4-[(6-ethoxy-1H-indazol-5-yl)amino]-N-methyl-5,6,7,8-tetrahydro[1]benzothieno[2,3-d]pyrimidine-7-carboxamide]: the IC50 is 1.1 nM.
With `O=C(NC1CCOCC1)C1CCc2c(sc3ncnc(Nc4ccc5[nH]ncc5c4)c23)C1` (racemic) [Example 123, (RS)-4-(1H-indazol-5-ylamino)-N-(tetrahydro-2H-pyran-4-yl)-5,6,7,8-tetrahydro[1]benzothieno[2,3-d]pyrimidine-7-carboxamide], the IC50 was 11.3 nM.
Turning to `CCCN(C)C(=O)C1CCc2c(sc3ncnc(Nc4cc5cn[nH]c5cc4OCC)c23)C1` (racemic) [Example 253, (RS)-4-[(6-Ethoxy-1H-indazol-5-yl)amino]-N-methyl-N-propyl-5,6,7,8-tetrahydro[1]benzothieno[2,3-d]pyrimidine-7-carboxamide], the IC50 was found to be 1.2 nM.
As to `COc1cc2[nH]ncc2cc1Nc1ncnc2sc3c(c12)CCC(C(=O)N1CCCCC1)C3` (racemic) [Example 176, (RS)-{4-[(6-Methoxy-1H-indazol-5-yl)amino]-5,6,7,8-tetrahydro[1]benzothieno[2,3-d]pyrimidin-7-yl}(piperidin-1-yl)methanone], the IC50 came to 0.5 nM.
As to `O=C(NCc1ccc(F)cc1)C1CCc2c(sc3ncnc(Nc4ccc5[nH]ncc5c4)c23)C1` (stereo not shown) [Example 24, N-(4-Fluorobenzyl)-4-(1H-indazol-5-ylamino)-5,6,7,8-tetrahydro[1] benzothieno [2,3-d]pyrimidine-7-carboxamide], the IC50 was determined as 3 nM.
For the compound `CCN(CC)C(=O)C1CCc2c(sc3ncnc(Nc4ccc5[nH]ncc5c4)c23)C1` (racemic) [Example 83, (RS)-N,N-diethyl-4-(1H-indazol-5-ylamino)-5,6,7,8-tetrahydro[1]benzothieno[2,3-d]pyrimidine-7-carboxamide], the IC50 was 14.7 nM.
Regarding `COc1ccc(CCNC(=O)C2CCc3c(sc4ncnc(Nc5ccc6[nH]ncc6c5)c34)C2)cc1` (stereo not shown) [Example 25, 4-(1H-Indazol-5-ylamino)-N-[2-(4-methoxyphenyl)ethyl]-5,6,7,8-tetrahydro[1] benzothieno [2,3-d]pyrimidine-7-carboxamide], the half-inhibitory concentration (IC50) is 3 nM.
The result for `CN(Cc1ccsc1)C(=O)C1CCc2c(sc3ncnc(Nc4ccc5[nH]ncc5c4)c23)C1` (racemic) [Example 162, (RS)-4-(1H-indazol-5-ylamino)-N-methyl-N-(thiophen-3-ylmethyl)-5,6,7,8-tetrahydro[1]benzothieno[2,3-d]pyrimidine-7-carboxamide] reads 5.3 nM.
The result for `CN1CCN(C(=O)C2CCc3c(sc4ncnc(Nc5ccc6[nH]ncc6c5)c34)C2)CC1CCO` (racemic) [Example 197, (RS)-[3-(2-hydroxyethyl)-4-methylpiperazin-1-yl][4-(1H-indazol-5-ylamino)-5,6,7,8-tetrahydro[1]benzothieno[2,3-d]pyrimidin-7-yl]methanone] reads 7.9 nM; that for `CCOc1cc2[nH]ncc2cc1Nc1ncnc2sc3c(c12)CCC(C(=O)N(CC)C(C)C)C3` (racemic) [Example 236, (RS)-4-[(6-Ethoxy-1H-indazol-5-yl)amino]-N-ethyl-N-(propan-2-yl)-5,6,7,8-tetrahydro[1]benzothieno[2,3-d]pyrimidine-7-carboxamide], 2.8 nM.
For `CCOC(=O)C1CCc2c(sc3ncnc(Nc4cc5cn[nH]c5cc4F)c23)C1` (stereo not shown) [Example 54, Ethyl 4-[(6-fluoro-1H-indazol-5-yl)amino]-5,6,7,8-tetrahydro[1]benzothieno[2,3-d]pyrimidine-7-carboxylate], the IC50 is 19 nM.
On to `CC(C)Oc1cc2[nH]ncc2cc1Nc1ncnc2sc3c(c12)CCC(C(=O)N1CC(C#N)C1)C3` (racemic) [Example 208, (RS)-1-[(4-{[6-(Propan-2-yloxy)-1H-indazol-5-yl]amino}-5,6,7,8-tetrahydro[1]benzothieno[2,3-d]pyrimidin-7-yl)carbonyl]azetidine-3-carbonitrile], for which the IC50 was found to be 0.2 nM.
As for `COc1cc2[nH]ncc2cc1Nc1ncnc2sc3c(c12)CCC(C(=O)N1CC2(COC2)C1)C3` (racemic) [Example 250, (RS)-{4-[(6-Methoxy-1H-indazol-5-yl)amino]-5,6,7,8-tetrahydro[1]benzothieno[2,3-d]pyrimidin-7-yl}(2-oxa-6-azaspiro[3.3]hept-6-yl)methanone], the IC50 was 0.5 nM.
Turning to `CCOc1cc2[nH]ncc2cc1Nc1ncnc2sc3c(c12)CCC(C(=O)N(C)C(C)(C)C)C3` (racemic) [Example 238, (RS)—N-tert-Butyl-4-[(6-ethoxy-1H-indazol-5-yl)amino]-N-methyl-5,6,7,8-tetrahydro[1]benzothieno[2,3-d]pyrimidine-7-carboxamide], the IC50 is 1.5 nM.
On to `CCOc1cc2[nH]ncc2cc1Nc1ncnc2sc3c(c12)CCC(C(=O)N1CCC(N(C)C)C1)C3` (racemic) [Example 258, [(3RS)-3-(Dimethylamino)pyrrolidin-1-yl]{(7RS)-4-[(6-ethoxy-1H-indazol-5-yl)amino]-5,6,7,8-tetrahydro[1]benzothieno[2,3-d]pyrimidin-7-yl}methanone], for which the IC50 was determined as 0.4 nM.
The result for `O=C(C1CCc2c(sc3ncnc(Nc4ccc5[nH]ncc5c4)c23)C1)N1CCN(c2cnccn2)CC1` (racemic) [Example 114, (RS)-[4-(1H-indazol-5-ylamino)-5,6,7,8-tetrahydro[1]benzothieno[2,3-d]pyrimidin-7-yl][4-(pyrazin-2-yl)piperazin-1-yl]methanone] reads 12.5 nM; that for `CN(Cc1ccncc1)C(=O)C1CCc2c(sc3ncnc(Nc4ccc5[nH]ncc5c4)c23)C1` (stereo not shown) [Example 26, 4-(1H-Indazol-5-ylamino)-N-methyl-N-(pyridin-4-ylmethyl)-5,6,7,8-tetrahydro[1] benzothieno [2,3-d]pyrimidine-7-carboxamide], 3 nM; that for `CCOc1cc2[nH]ncc2cc1Nc1ncnc2sc3c(c12)CCC(C(=O)N1CCN2CCCCC2C1)C3` (racemic) [Example 270, {(7RS)-4-[(6-Ethoxy-1H-indazol-5-yl)amino]-5,6,7,8-tetrahydro[1]benzothieno[2,3-d]pyrimidin-7-yl}[(9aRS)-octahydro-2H-pyrido[1,2-a]pyrazin-2-yl]methanone], 0.4 nM.
